Data taken from patent US20080139458A1, “Methods of Treatment For Injured or Diseased Joints” (priority 2004, published 2008).

B1: Trypsin: TPCK-treated trypsin (Sigma-Aldrich) used to treat lubricin, BSF and murine joints (protein, UniProt P00760 24-246, looked up)
Serine protease 1: IVGGYTCGANTVPYQVSLNSGYHFCGGSLINSQWVVSAAHCYKSGIQVRLGEDNINVVEGNEQFISASKSIVHPSYNSNTLNNDIMLIKLKSAASLNSRVASISLPTSCASAGTQCLISGWGNTKSSGTSYPDVLKCLKAPILSDSSCKSAYPGQITSNMFCAGYLEGGKDSCQGDSGGPVVCSGKLQGIVSWGSGCAQKNKPGVYTKVCNYVSWIKQTIASN
modifications: TPCK-treated
notes: TPCK-treated trypsin (Sigma-Aldrich) used to treat lubricin, BSF and murine joints

Experiments:
purified human lubricin [1] = assay: In vitro friction assay of protease-treated purified human lubricin; assay type: biochemical; conditions: enzymes 0.5 U/mL, Lubricin = no enzyme, latex:glass bearing
Experimental: (§1) Human lubricin was purified from pooled SF aspirates of patients undergoing total knee replacement as described previously (Jay et al., Gluconj. J. 18:807-815, 2001). BSF was aspirated percutaneously from the lateral aspect of radiocarpal joints of freshly slaughtered cattle with sterile 18 gauge needles after cleansing the skin with alcohol swabs. The cattle were 1 year old and of both sexes (PelFreeze Corp., Little Rock, Ark.). The BSF was centrifuged at 20,000 g at 4° C. to remove cell debris and the BSF was stored at −20° C. Aliquots of purified human lubricin (1 mL, 250 μg/1 mL), and BSF (1 mL) were subjected to protease treatments with CB, NE, α-chymotrypsin, or trypsin. These enzymes were utilized as follows: 1) 0.5 U/mL of CB (Sigma-Aldrich, Saint Louis, Mo., one unit liberates 1 nanomole of 7-amino-4-methylcoumarin from Z-Arg-Arg 7-amido-4-methylcoumarin per min at pH 6.0 at 40° C.) reconstituted in 0.25 M Na acetate buffer, pH 5.5; 2) 0.5 U/mL NE (Sigma-Aldrich, one unit is defined as the release of 1 mole of p-nitrophenol per sec at 37° C.) reconstituted in 100 mM Tris-HCl, 100 mM CaCl2, pH 8.8; 3) 0.5 U/mL of TPCK-treated trypsin (Sigma-Aldrich, one unit causes a change in A253 of 0.001 per min at pH 7.6 at 25° C. using BAEE as a substrate) reconstituted in 50 mM Tris HCl, 20 mM CaCl2, pH 8.0; and 4) 0.5 U/mL of α-chymotrypsin (Sigma-Aldrich, one unit hydrolyzes 1.0 μmole of BTEE per min at pH 7.8 at 25° C.) reconstituted in 80 mM Tris-HCl, 100 mM CaCl2, pH 7.8.
(§2) Aliquots of digested human lubricin and BSF (200 μL) were removed after 2, 4, 6, 12, and 24 hours and the reaction was stopped by adding E-64 (L-trans-epoxysuccinyl-leucyl-amido-(4-guanidino)-butane, Sigma-Aldrich) to a final concentration of 100 μM (CB) or phenylmethanesulfonyl fluoride (PMSF, Sigma-Aldrich) to a final concentration of 1 mM (NE).
(§3) The boundary lubricating abilities of protease-treated human lubricin and BSF were measured using a friction apparatus as reported by Davis et al., J. Biomech. Eng. 101:185-192, 1979. Lubricant (200 μL) was applied between a bearing of latex and a ring of polished glass with a contact area of 1.59 cm^2. The latex was oscillated, under a pressure of 0.35×10^6 N/m^2, against the polished glass with an entraining velocity of 0.37 mm/sec. The bearing system was axially loaded within a gimbals system free to rotate around two perpendicular horizontal axes. The friction apparatus recorded displacements of the gimbals system around the vertical loading axis through a linear displacement voltage transducer, where the output was directly proportional to the frictional torque (F). A bearing load of 70 newtons (N) was related to the coefficient of friction (μ) via Amonton's law, F=μN.
(§4) The μ of the lubricant was recorded at room temperature and was preceded by a baseline measurement of μ with normal saline (NS). Lubrication was manifested by a reduction in μ by the lubricant relative to that of NS. Negative Δμ (−Δμ) values indicate lubrication whereas positive Δμ (+Δμ) indicate friction. Addition of 200 μL of lubricant was followed by bringing the bearing surfaces close enough so that the solution wet both surfaces. After 5 min for equilibration, the latex-coated bearing was brought to rest on the glass as it was oscillating. Voltage measurements were recorded at 1, 3, and 5 min. After 5 min, the surfaces were separated for 2 min and then brought back together for three additional 5 min session. The 3 and 5 min μ values of the last two 5 min session were recorded and averaged, and data were later combined with another duplicate experiment providing 8 distinct measurements of μ.

[2] = system: bovine synovial fluid (BSF); assay: In vitro friction assay of protease-treated bovine synovial fluid; assay type: biochemical; conditions: enzymes 0.5 U/mL, BSF = no enzyme, latex:glass bearing
Experimental: as §1, §2, §3, §4

excised murine joints = assay: Ex vivo friction coefficient of excised murine joints after intra-articular protease (modified Stanton pendulum); set-up: species or system murine (Svev129 mice); conditions: for Friction coefficient μ ± S.D.: n = 4; for average increase in μ: after vs before intra-articular injection of 0.05 U, 2 hours at room temperature
Experimental: Murine joint friction measurements were performed ex vivo in a modified Stanton pendulum configuration (Chamely, New Scientist 6:60, 1959) illustrated in FIG. 2. Excised murine joints, from 8 week old Svev129 mice, weighing approximately 20 grams (Taconic, Germantown, N.Y.), were stripped of supporting connective tissue and musculature, while the synovium was left undisturbed. The femur and tibia were severed mid-length and covered with connecting plexiglass tubing. The center of the joint served as the axis of rotation of a 1 Hz pendulum. The joints were loaded with 20 grams and allowed to oscillate. The pendulum was set in motion at an angle of 30° off the perpendicular axis. The pendulum motion was videotaped and post-hoc analysis was performed to establish baseline μ. The deceleration of the pendulum, a=dv/dt, was used to calculate μ. Velocity (v) was calculated from the equation: v=(2 gh)^1/2 where h is the height from where the pendulum reached apogee to the point of maximum velocity at a=0. The μ of murine joint was calculated to be equal a/g. Presently, this calculation neglects aerodynamic drag and assumes g equals 9.81 m/s^2. A 5 μL protease solution containing 0.05 U of CB, NE, α-chymotrypsin, or trypsin was delivered intra-articularly. The limbs were treated at room temperature for 2 hours and the limbs were subsequently allowed to oscillate to estimate μ following treatment with the protease.

purified human lubricin [3] = assay: Western blot of protease-treated purified human lubricin (PNA-peroxidase and pAb J108); assay type: biochemical
Experimental: as §1, with “7.8. […]” for “7.8.”
Probing was performed using pAb J108, which recognizes an epitope; […], encoded by exon 3 within the amino-terminus of human lubricin/SZP and present in all alternatively spliced isoforms (Jay et al., J. Orthop. Res. 19:677-687, 2001). […] Immunopositive bands were detected in a darkroom on BioMax film (Kodak, Rochester, N.Y.). […]

[4] = After intra-articular injection of 5 μl containing 0.05 U, 2 hour treatment at room temperature
[5] = Before intra-articular injection (baseline)

| Molecule | Change in coefficient of friction Δμ ± S.D. (purified human lubricin [1]; 0 hrs) | Change in coefficient of friction Δμ ± S.D. (purified human lubricin [1]; 2 hrs) | Change in coefficient of friction Δμ ± S.D. (purified human lubricin [1]; 4 hrs) | Change in coefficient of friction Δμ ± S.D. (purified human lubricin [1]; 6 hrs) | Change in coefficient of friction Δμ ± S.D. (purified human lubricin [1]; 12 hrs) | Change in coefficient of friction Δμ ± S.D. (purified human lubricin [1]; 24 hrs) | Change in coefficient of friction Δμ ± S.D. ([2]; 0 hrs) | Change in coefficient of friction Δμ ± S.D. ([2]; 2 hrs) | Change in coefficient of friction Δμ ± S.D. ([2]; 4 hrs) | Change in coefficient of friction Δμ ± S.D. ([2]; 6 hrs) | Change in coefficient of friction Δμ ± S.D. ([2]; 12 hrs) | Change in coefficient of friction Δμ ± S.D. ([2]; 24 hrs) | Friction coefficient μ ± S.D. (excised murine joints; [4]) | Friction coefficient μ ± S.D. (excised murine joints; [5]) | average increase in μ (excised murine joints) | Degradation of lubricin (band intensities) (purified human lubricin [3]; 0.5 U/mL, 2, 4, 6, 12, and 24 hours post-treatment) | pAb J108 immunoreactive bands (purified human lubricin [3]; following NE treatment for 2 hours at 37° C.) | PNA and J108 reactivity of lubricin (purified human lubricin [3]; after 2 hours of treatment (data not shown)) |
| --- | --- | --- | --- | --- | --- | --- | --- | --- | --- | --- | --- | --- | --- | --- | --- | --- | --- | --- |
| Neutrophil Elastase: protease (Sigma-Aldrich) used to treat lubricin, BSF and murine joints | −0.068 ± 0.005 | −0.038 ± 0.005 | −0.019 ± 0.004 | 0.004 ± 0.001 | 0.015 ± 0.003 | 0.054 ± 0.006 | −0.061 ± 0.005 | −0.039 ± 0.001 | 0.007 ± 0.001 | 0.009 ± 0.001 | 0.010 ± 0.001 | 0.013 ± 0.002 | 0.0028 ± 0.0008 | 0.0022 ± 0.0005 | 27.3% | time-dependent degradation of lubricin | no pAb J108 immunoreactive bands were detected |  |
| B1 | −0.068 ± 0.005 | 0.025 ± 0.006 | 0.032 ± 0.005 | 0.038 ± 0.001 | 0.046 ± 0.005 | 0.049 ± 0.005 | −0.061 ± 0.005 | −0.031 ± 0.005 | −0.015 ± 0.002 | 0.005 ± 0.001 | 0.009 ± 0.003 | 0.012 ± 0.004 | 0.0034 ± 0.0003 | 0.0018 ± 0.0001 | 88.9% |  |  | complete loss of PNA and J108 reactivity |
